From ChEMBL document CHEMBL4421717, “Antagonists and agonists of bitter taste receptors and uses thereof” (2012) come the findings set out here.

In general, pIC50 refers to the IC50 on a negative log10 scale, so that one unit is a factor of ten.

Holding throughout (format): functional, cell-based
In test [1] the target is T1, Taste receptor type 2 member 46 (Homo sapiens, UniProt P59540).
T1 sequence (P59540 whole entry): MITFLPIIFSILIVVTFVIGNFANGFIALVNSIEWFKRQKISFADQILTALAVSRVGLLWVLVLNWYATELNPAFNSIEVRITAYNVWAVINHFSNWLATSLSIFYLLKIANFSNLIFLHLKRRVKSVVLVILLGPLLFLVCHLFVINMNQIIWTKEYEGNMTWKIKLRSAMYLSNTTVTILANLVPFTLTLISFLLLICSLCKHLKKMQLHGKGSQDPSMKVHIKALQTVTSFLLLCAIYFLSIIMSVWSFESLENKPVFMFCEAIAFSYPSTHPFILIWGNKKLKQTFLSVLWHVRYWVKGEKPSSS
As to the kind of experiment: Antagonist activity at recombinant human N-terminal rat ST3 receptor-fused TAS2R46 expressed in HEK293T cells co-expressing Galpha16gust44 assessed as inhibition of 30 uM andrographolide-induced intracellular calcium level 100 uM by FLIPR assay.

The target in test [2] is T2, Taste receptor type 2 member 8 (Homo sapiens) (UniProt Q9NYW2).
T2 sequence (whole entry): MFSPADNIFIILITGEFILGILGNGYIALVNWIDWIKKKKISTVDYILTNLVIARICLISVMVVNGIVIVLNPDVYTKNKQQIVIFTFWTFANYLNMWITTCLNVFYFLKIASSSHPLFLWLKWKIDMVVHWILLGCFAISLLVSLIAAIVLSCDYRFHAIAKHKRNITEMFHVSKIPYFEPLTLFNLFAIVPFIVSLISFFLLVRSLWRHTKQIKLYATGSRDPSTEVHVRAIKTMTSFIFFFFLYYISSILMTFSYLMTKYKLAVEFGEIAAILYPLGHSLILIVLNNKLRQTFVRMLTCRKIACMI
Briefly: Agonist activity at recombinant human N-terminal rat ST3 receptor-fused TAS2R8 expressed in HEK293T cells co-expressing Galpha16gust44 assessed as effect on intracellular calcium level at 100 uM by FLIPR assay. For orientation: A change in cytosolic calcium serves as a functional read-out for many receptors and channels.

The target in test [3] is T3, Taste receptor type 2 member 9 (Homo sapiens) (UniProt Q9NYW1).
T3 sequence (whole entry): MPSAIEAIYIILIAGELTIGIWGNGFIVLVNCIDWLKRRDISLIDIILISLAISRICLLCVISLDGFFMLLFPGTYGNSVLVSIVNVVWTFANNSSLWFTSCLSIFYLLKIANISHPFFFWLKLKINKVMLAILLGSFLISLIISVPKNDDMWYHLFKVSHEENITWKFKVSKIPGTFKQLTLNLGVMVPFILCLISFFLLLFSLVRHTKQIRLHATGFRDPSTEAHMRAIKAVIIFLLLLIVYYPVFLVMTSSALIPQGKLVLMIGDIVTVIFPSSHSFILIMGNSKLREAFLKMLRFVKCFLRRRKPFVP
As to the kind of experiment: Agonist activity at recombinant human N-terminal rat ST3 receptor-fused TAS2R9 expressed in HEK293T cells co-expressing Galpha16gust44 assessed as effect on intracellular calcium level at 100 uM by FLIPR assay.

Test [4] has as its target T4, Taste receptor type 2 member 16 (Homo sapiens) (UniProt Q9NYV7).
T4 sequence (whole entry): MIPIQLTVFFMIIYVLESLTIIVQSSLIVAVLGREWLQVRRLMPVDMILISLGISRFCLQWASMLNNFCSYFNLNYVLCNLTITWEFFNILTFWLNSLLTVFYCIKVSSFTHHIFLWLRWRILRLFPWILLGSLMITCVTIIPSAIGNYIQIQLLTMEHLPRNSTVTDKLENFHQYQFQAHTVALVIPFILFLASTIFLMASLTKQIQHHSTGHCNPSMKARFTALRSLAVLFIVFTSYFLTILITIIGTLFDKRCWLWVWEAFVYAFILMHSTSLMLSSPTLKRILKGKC
Briefly: Agonist activity at recombinant human N-terminal rat ST3 receptor-fused TAS2R16 expressed in HEK293T cells co-expressing Galpha16gust44 assessed as effect on intracellular calcium level at 100 uM by FLIPR assay.

The target of test [5] is T5, Taste receptor type 2 member 43 (Homo sapiens) (UniProt P59537).
T5 sequence (whole entry): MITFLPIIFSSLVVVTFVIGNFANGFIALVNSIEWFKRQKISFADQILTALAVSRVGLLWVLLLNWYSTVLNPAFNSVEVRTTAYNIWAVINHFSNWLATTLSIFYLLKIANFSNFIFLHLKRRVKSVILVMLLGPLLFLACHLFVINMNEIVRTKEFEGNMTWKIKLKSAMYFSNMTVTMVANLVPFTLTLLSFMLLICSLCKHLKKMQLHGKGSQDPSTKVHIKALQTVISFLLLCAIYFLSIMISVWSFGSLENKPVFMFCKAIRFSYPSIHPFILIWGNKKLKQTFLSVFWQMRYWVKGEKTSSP
Briefly: Agonist activity at recombinant human N-terminal rat ST3 receptor-fused TAS2R43 expressed in HEK293T cells co-expressing Galpha16gust44 assessed as effect on intracellular calcium level at 100 uM by FLIPR assay.

The target in test [6] is Taste receptor type 2 member 45 (Homo sapiens) (UniProt P59539). Briefly: Agonist activity at recombinant human N-terminal rat ST3 receptor-fused TAS2R45 expressed in HEK293T cells co-expressing Galpha16gust44 assessed as effect on intracellular calcium level at 100 uM by FLIPR assay.
Taste receptor type 2 member 45 (Homo sapiens), sequence (P59539 whole entry, the tested form may be a part): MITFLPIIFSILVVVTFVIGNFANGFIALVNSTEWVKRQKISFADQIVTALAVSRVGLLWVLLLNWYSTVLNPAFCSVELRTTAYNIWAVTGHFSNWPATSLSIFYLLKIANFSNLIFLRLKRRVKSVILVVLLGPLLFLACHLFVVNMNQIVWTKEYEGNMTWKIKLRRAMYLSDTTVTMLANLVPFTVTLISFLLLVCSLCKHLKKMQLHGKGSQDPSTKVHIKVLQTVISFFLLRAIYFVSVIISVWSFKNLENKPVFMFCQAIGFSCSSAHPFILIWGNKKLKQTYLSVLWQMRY
Test [7] deals with T6, Taste receptor type 2 member 20 (Homo sapiens) (UniProt P59543).
T6 sequence (whole entry): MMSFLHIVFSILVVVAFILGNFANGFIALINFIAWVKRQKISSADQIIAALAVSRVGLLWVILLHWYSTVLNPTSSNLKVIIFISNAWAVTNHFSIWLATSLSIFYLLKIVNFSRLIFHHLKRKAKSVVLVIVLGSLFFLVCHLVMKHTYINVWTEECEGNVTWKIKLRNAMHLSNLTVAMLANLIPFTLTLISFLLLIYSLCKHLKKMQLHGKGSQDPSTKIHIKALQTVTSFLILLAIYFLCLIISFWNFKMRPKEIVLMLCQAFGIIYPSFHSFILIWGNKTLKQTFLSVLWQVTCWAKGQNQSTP
Briefly: Agonist activity at recombinant human N-terminal rat ST3 receptor-fused TAS2R49 expressed in HEK293T cells co-expressing Galpha16gust44 assessed as effect on intracellular calcium level at 100 uM by FLIPR assay.

Test [8] concerns the target T7, Taste receptor type 2 member 46 (Homo sapiens) (UniProt P59540).
T7 sequence (whole entry): T1 sequence (P59540 whole entry)
Briefly: Competitive antagonist activity at recombinant human N-terminal rat ST3 receptor-fused TAS2R46 expressed in HEK293T cells co-expressing Galpha16gust44 assessed as inhibition strychnine-induced intracellular calcium level by FLIPR assay.

Test [9] deals with T7, Taste receptor type 2 member 46 (Homo sapiens). As to the kind of experiment: Competitive antagonist activity at recombinant human N-terminal rat ST3 receptor-fused TAS2R46 expressed in HEK293T cells co-expressing Galpha16gust44 assessed as inhibition strychnine-induced intracellular calcium level by measuring strychnine induced maximum signal amplitude at 30 uM by FLIPR assay (reference value: 0.42 +/- 0.09 au)).

SMILES strings stand for the structures. pIC50: −log10 of the molar value. Calls of active or inactive are those of the source. No cut-off for these calls is given here.

With `C/C1=C\C[C@H](O)[C@@H](C)C[C@H]2OC(=O)[C@@H](C)C2CC1` (some centres undefined), in test [1], the negative logarithm of the IC50 (pIC50) was 4.35.
Consider `C/C1=C\C[C@H](O)/C(C)=C/[C@H]2OC(=O)[C@@H](C)C2CC1` (some centres undefined), for which the result in test [2] was Active. The outcome in [3], in test [4], in [5], in test [6] and in test [7] was inactive. In addition, the inhibition result in test [8] was “Active”. In test [9], the Activity is 0.41 a.u.
